Test results taken from the supplement of paper PMC11061612.

Legend:
Assay in all cases: combination Emax (second highest fraction inhibited in the dose matrix, 72 h); higher = more inhibition; extreme values may be limits of the assay
[1] = system: WSU-DLCL2 (B-Cell Non-Hodgkin's Lymphoma)
Procedure, shortened: (§1)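 Bliss excess equals the observed combination effect minus the expected value EA + EB − EA·EB, where EA and EB are the effects of each agent alone. Combination Emax is the second-highest inhibition within the matrix. Inhibition was scaled from CellTiter-Glo 2.0 luminescence, with 0 set by vehicle wells and 1 by blank wells, after 72 hours of two-drug dosing of cells plated in 1536-well plates.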

[2] = system: DOK (Oral Cavity Carcinoma)
Procedure, shortened: as §1

[3] = system: ETK-1 (Biliary Tract Carcinoma)
Procedure, shortened: as §1

[4] = system: SK-UT-1 (Other Solid Carcinomas)
Procedure, shortened: as §1

SK-MEL-1 (Melanoma) = system: SK-MEL-1 (Melanoma)
Procedure, shortened: as §1

A172 (Glioblastoma) = system: A172 (Glioblastoma)
Procedure, shortened: as §1

H4 (Low Grade Glioma) = system: H4 (Low Grade Glioma)
Procedure, shortened: as §1

[5] = system: SW948 (Colorectal Carcinoma)
Procedure, shortened: as §1

[6] = system: D-283MED (Other Solid Carcinomas)
Procedure, shortened: as §1

[7] = system: HCC-827 (Lung Adenocarcinoma)
Procedure, shortened: as §1

EW-22 (Ewing's Sarcoma) = system: EW-22 (Ewing's Sarcoma)
Procedure, shortened: as §1

[8] = system: SW48 (Colorectal Carcinoma)
Procedure, shortened: as §1

[9] = system: EKVX (Non-Small Cell Lung Carcinoma)
Procedure, shortened: as §1

MCF7 (Breast Carcinoma) = system: MCF7 (Breast Carcinoma)
Procedure, shortened: as §1

[10] = system: SK-LMS-1 (Other Solid Carcinomas)
Procedure, shortened: as §1

[11] = system: TYK-nu (Ovarian Carcinoma)
Procedure, shortened: as §1

CS1 (Chondrosarcoma) = system: CS1 (Chondrosarcoma)
Procedure, shortened: as §1

HCC38 (Breast Carcinoma) = system: HCC38 (Breast Carcinoma)
Procedure, shortened: as §1

[12] = system: JHH-6 (Hepatocellular Carcinoma)
Procedure, shortened: as §1

[13] = system: MEG-01 (Chronic Myelogenous Leukemia)
Procedure, shortened: as §1

SMILES | combination Emax [1] | combination Emax [2] | combination Emax [3] | combination Emax [4] | combination Emax (SK-MEL-1 (Melanoma)) | combination Emax (A172 (Glioblastoma)) | combination Emax (H4 (Low Grade Glioma)) | combination Emax [5] | combination Emax [6] | combination Emax [7] | combination Emax (EW-22 (Ewing's Sarcoma)) | combination Emax [8] | combination Emax [9] | combination Emax (MCF7 (Breast Carcinoma)) | combination Emax [10] | combination Emax [11] | combination Emax (CS1 (Chondrosarcoma)) | combination Emax (HCC38 (Breast Carcinoma)) | combination Emax [12] | combination Emax [13]
Cc1cc2ncnn2cc1Nc1ncc2c(n1)n(C1CCOCC1)c(=O)n2C [AZD7648] + CN(C)CCCOc1ccc(-c2ccc3ncc4c(c3c2)n(C2CCOCC2)c(=O)n4C)cn1 [AZD0156] (first compound max 10 µM, 7x7, partner max 1 µM) | 0.345 | 0.249 | 0.155 | 0.214 | 0.347 | 0.319 | 0.448 | 0.545 | 0.496 | 0.297 | 0.467 | 0.329 | 0.315 | 0.373 | 0.428 | 0.431 | 0.306 | 0.233 | 0.279 | 0.361
Cc1cc2ncnn2cc1Nc1ncc2c(n1)n(C1CCOCC1)c(=O)n2C [AZD7648] + C[C@@H]1COCCN1C2=NC(=NC(=C2)C3(CC3)[S@](=N)(=O)C)C4=C5C=CNC5=NC=C4 [AZD6738] (first compound max 10 µM, 7x7, partner max 10 µM) | 0.905 | 0.453 | 0.621 | 0.757 | 0.293 | 0.687 | 0.789 | 0.578 | 0.988 | 0.5 | 0.851 | 0.681 | 0.317 | 0.755 | 0.533 | 0.695 | 0.591 | 0.565 | 0.333 | 0.894
COc1cccc2c1C(=O)c1c(O)c3c(c(O)c1C2=O)C[C@@](O)(C(=O)CO)C[C@@H]3O[C@H]1C[C@H](N)[C@H](O)[C@H](C)O1 [Doxorubicin] + Cc1cc2ncnn2cc1Nc1ncc2c(n1)n(C1CCOCC1)c(=O)n2C [AZD7648] (first compound max 1 µM, 7x7, partner max 10 µM) | 1 | 0.697 | 0.562 | 0.873 | 0.593 | 0.94 | 0.818 | 0.52 | 0.943 | 0.72 | 0.947 | 0.94 | 0.378 | 0.623 | 0.82 | 0.704 | 0.772 | 0.555 | 0.496 | 0.867
COc1cccc(OCCCN)c1-c1cc(Nc2cnc(C#N)cn2)n[nH]1 [Prexasertib] + C=CCn1c(=O)c2cnc(Nc3ccc(N4CCN(C)CC4)cc3)nc2n1-c1cccc(C(C)(C)O)n1 [AZD1775] (first compound max 1 µM, partner max 1 µM) | 1 | 0.685 | 0.666 | 0.967 | 0.605 | 0.832 | 0.979 | 0.896 | 1 | 0.603 | 0.866 | 0.834 | 0.287 | 0.658 | 0.711 | 0.748 | 0.735 | 0.799 | 0.599 | 0.939
COc1cccc(OCCCN)c1-c1cc(Nc2cnc(C#N)cn2)n[nH]1 [Prexasertib] + CCc1c2c(nc3ccc(O)cc13)-c1cc3c(c(=O)n1C2)COC(=O)[C@]3(O)CC [SN-38] (first compound max 1 µM, 7x7, partner max 0.3 µM) | 1 | 0.627 | 0.727 | 0.982 | 0.623 | 0.751 | 0.941 | 0.94 | 0.99 | 0.749 | 0.94 | 0.889 | 0.379 | 0.685 | 0.891 | 0.861 | 0.882 | 0.753 | 0.79 | 0.94
COc1cccc(OCCCN)c1-c1cc(Nc2cnc(C#N)cn2)n[nH]1 [Prexasertib] + CN(C)CCCOc1ccc(-c2ccc3ncc4c(c3c2)n(C2CCOCC2)c(=O)n4C)cn1 [AZD0156] (first compound max 1 µM, 7x7, partner max 1 µM) | 1 | 0.348 | 0.598 | 0.936 | 0.605 | 0.699 | 0.917 | 0.804 | 0.99 | 0.552 | 0.898 | 0.767 | 0.265 | 0.741 | 0.612 | 0.73 | 0.685 | 0.711 | 0.342 | 0.921
COc1cccc(OCCCN)c1-c1cc(Nc2cnc(C#N)cn2)n[nH]1 [Prexasertib] + C[C@@H]1COCCN1C2=NC(=NC(=C2)C3(CC3)[S@](=N)(=O)C)C4=C5C=CNC5=NC=C4 [AZD6738] (first compound max 1 µM, 7x7, partner max 10 µM) | 1 | 0.43 | 0.588 | 0.926 | 0.624 | 0.775 | 0.91 | 0.821 | 0.988 | 0.549 | 0.888 | 0.81 | 0.24 | 0.703 | 0.637 | 0.766 | 0.714 | 0.723 | 0.367 | 0.929
COc1cccc(OCCCN)c1-c1cc(Nc2cnc(C#N)cn2)n[nH]1 [Prexasertib] + Cc1cc2ncnn2cc1Nc1ncc2c(n1)n(C1CCOCC1)c(=O)n2C [AZD7648] (first compound max 1 µM, 7x7, partner max 10 µM) | 1 | 0.499 | 0.595 | 0.957 | 0.653 | 0.728 | 0.874 | 0.812 | 0.995 | 0.566 | 0.89 | 0.728 | 0.276 | 0.682 | 0.637 | 0.739 | 0.727 | 0.74 | 0.389 | 0.926
COc1cccc(OCCCN)c1-c1cc(Nc2cnc(C#N)cn2)n[nH]1 [Prexasertib] + O=C(c1cc(Cc2n[nH]c(=O)c3ccccc23)ccc1F)N1CCN(C(=O)C2CC2)CC1 [Olaparib] (first compound max 1 µM, 7x7, partner max 10 µM) | 1 | 0.418 | 0.578 | 0.957 | 0.596 | 0.626 | 0.845 | 0.838 | 0.982 | 0.523 | 0.957 | 0.658 | 0.194 | 0.429 | 0.676 | 0.748 | 0.706 | 0.677 | 0.499 | 0.893
COc1cc2c(cc1OCCCCCOc1cc3c(cc1OC)C(=O)N1C=C(C)C[C@H]1C=N3)N=C[C@@H]1CC(C)=CN1C2=O [SG3199] + O=C(c1cc(Cc2n[nH]c(=O)c3ccccc23)ccc1F)N1CCN(C(=O)C2CC2)CC1 [Olaparib] (first compound max 0.001 µM, 7x7, partner max 10 µM) | 0.127 | 0.121 | 0.188 | 0.046 | 0.134 | 0.363 | 0.505 | 0.185 | 0.417 | 0.131 | 0.894 | 0.0699 | 0.0945 | 0.106 | 0.2 | 0.369 | 0.178 | 0.0919 | 0.113 | 0.111
CCc1c2c(nc3ccc(O)cc13)-c1cc3c(c(=O)n1C2)COC(=O)[C@]3(O)CC [SN-38] + CN(C)CCCOc1ccc(-c2ccc3ncc4c(c3c2)n(C2CCOCC2)c(=O)n4C)cn1 [AZD0156] (first compound max 0.3 µM, 7x7, partner max 1 µM) | 0.944 | 0.488 | 0.572 | 0.97 | 0.538 | 0.81 | 0.931 | 0.746 | 0.954 | 0.526 | 0.951 | 0.826 | 0.188 | 0.686 | 0.914 | 0.847 | 0.821 | 0.682 | 0.326 | 0.73
CCc1c2c(nc3ccc(O)cc13)-c1cc3c(c(=O)n1C2)COC(=O)[C@]3(O)CC [SN-38] + O=C(c1cc(Cc2n[nH]c(=O)c3ccccc23)ccc1F)N1CCN(C(=O)C2CC2)CC1 [Olaparib] (first compound max 0.3 µM, 7x7, partner max 10 µM) | 1 | 0.587 | 0.63 | 0.973 | 0.516 | 0.842 | 0.938 | 0.647 | 0.947 | 0.497 | 0.947 | 0.799 | 0.3 | 0.654 | 0.889 | 0.766 | 0.846 | 0.682 | 0.42 | 0.755
CC(=O)Nc1cccc(-n2c(=O)n(C3CC3)c(=O)c3c(Nc4ccc(I)cc4F)n(C)c(=O)c(C)c32)c1 [Trametinib] + Cc1nc(-c2cn3c(n2)-c2ccc(-c4cnn(C(C)(C)C(N)=O)c4)cc2OCC3)n(C(C)C)n1 [Taselisib] (first compound max 1 µM, 7x7, partner max 10 µM) | 0.936 | 0.998 | 0.86 | 0.597 | 0.942 | 0.761 | 0.795 | 0.994 | 0.576 | 0.762 | 0.722 | 0.95 | 0.82 | 0.732 | 0.974 | 0.737 | 0.878 | 0.364 | 0.636 | 0.953
